Legend:
[1] = systemic half-life in dogs; details: dog, in vivo
Excerpt: Topical administration of the ARI 2R,4S-6-fluoro-2-methyl-spiro[chroman-4,4′-imidazolidine]-2′,5′-dione (2-MS) is the preferred method for preventing cataracts and ocular complications in diabetic dogs and cats. As a result of the short, 3 hr systemic half-life of 2-MS in dogs and subsequent studies conducted in galactose-fed dogs, it is estimated that, at minimum, a multiple 4-times/day oral dose is required for efficacy. Topical application permits a lower dosage and a lower frequency of administration. Topical application will also minimize the tendency of diabetic dogs to have their liver functions compromised because topical administration will bypass first pass liver metabolism. The topical treatment of the present invention will not only arrest the progression of sugar cataracts, but also reduces the density of early cortical cataracts. […] The topical treatment should also delay the formation of other ocular diabetes associated complications associated with aldose reductase, as summarized above.

[2] = stability of 2R-MS in carbomer gel emulsion; format: physicochemical; details: room temperature
Protocol: To maximize the topical administration of 2R-MS, vehicles or carriers of different viscosities comprised of polymers, gums, or viscosity enhancers were prepared. Formulations containing 3% of the AR inhibitor 2R-MS were prepared using the five different vehicles, which included 0.5% hydroxypropyl methylcellulose (HPMC); 0.5% xanthan gum; 0.5% gellan gum; 0.25% carbopol; and 0.25% carbopol (0.25% w/v)+0.25% HPMC. All were prepared in modified Sorensen's Phosphate Buffer, pH of 7.4. The drug and each vehicle were suspended directly in a sterile eye drop bottle by vortexing vigorously for at least one minute. […] All suspensions were vortexed prior to topical administration. An additional topical carbomer gel formulation consisting of 2.5% water soluble high molecular weight polymer of acrylic acid cross-linked with a polyether of sucrose was also developed. Carbomers are widely used in products for the treatment of dry eye. Crystalline 2R-MS was ground into a fine powder and mixed into an emulsion according to standard techniques.

accumulation of sorbitol = details: fold more effective than sorbinil; '704 patent; cited from earlier work
aldose reductase = aldose reductase (Homo sapiens, UniProt P15121); details: '704 patent; cited from earlier work

half-life [1] [h] | Structure (SMILES) | stability in the emulsion [2] | effectiveness in preventing the accumulation of sorbitol relative to sorbinil (accumulation of sorbitol) | inhibiting aldose reductase, compared with sorbinil (aldose reductase)
3 | C[C@@H]1C[C@]2(NC(=O)NC2=O)c2cc(F)ccc2O1 [2R-MS, 2R,4S-6-fluoro-2-methyl-spiro[chroman-4,4′-imidazolidine]-2′,5′-dione] | stable in the emulsion for a minimum of ten months | – | –
– | CC1CC2(NC(=O)NC2=O)c2cc(F)ccc2O1 (stereo not shown) [2-methyl sorbinil, 6-fluoro-2-methyl-spiro-[chroman-4,4′-imidazolidine]-2′,5′-dione] | – | 2-10 times | more effective in inhibiting aldose reductase

— patent US8158667B2, “Topical treatment of cataracts in dogs” (priority 2006, dated 2012)
